Earlier results, collected in US20260069551A1, “Patch for treating demyelinating diseases” (Johannes Gutenberg-Universität Mainz, priority 2022, published 2026).

System: injured nerves
Conditions: 10 mg/kg/day, intraperitoneally injected

## Cn1c(=O)c2[nH]cnc2n(C)c1=O [theophylline, 1,3-dimethyl-7H-purine-2,6-dione]
  remyelination of injured nerves: significant remyelination
